According to PubChem BioAssay (NCI):
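Five concentrations, 48 hours, 96-well plates. GI50: concentration for 50% inhibition of growth. TGI marks complete inhibition of growth.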

Tests used:
Assay in all cases: growth of human tumour cells (NCI), 48 h
786-0 renal = tested on: 786-0 renal
A498 renal = tested on: A498 renal
A549 NSCLC = tested on: A549 NSCLC
ACHN renal = tested on: ACHN renal
BT-549 breast = tested on: BT-549 breast
CAKI-1 renal = tested on: CAKI-1 renal
CCRF-CEM leukemia = tested on: CCRF-CEM leukemia
COLO 205 colon = tested on: COLO 205 colon
DU-145 prostate = tested on: DU-145 prostate
EKVX NSCLC = tested on: EKVX NSCLC
HCC-2998 colon = tested on: HCC-2998 colon
HCT-116 colon = tested on: HCT-116 colon
HCT-15 colon = tested on: HCT-15 colon
HOP-62 NSCLC = tested on: HOP-62 NSCLC
HOP-92 NSCLC = tested on: HOP-92 NSCLC
HS 578T breast = tested on: HS 578T breast
HT29 colon = tested on: HT29 colon
IGROV1 ovarian = tested on: IGROV1 ovarian
KM12 colon = tested on: KM12 colon
LOX IMVI melanoma = tested on: LOX IMVI melanoma
M14 melanoma = tested on: M14 melanoma
MALME-3M melanoma = tested on: MALME-3M melanoma
MCF7 breast = tested on: MCF7 breast
MDA-MB-231 breast = tested on: MDA-MB-231 breast
MDA-MB-435 = tested on: MDA-MB-435
NCI-H226 lung = tested on: NCI-H226 lung
NCI-H460 lung = tested on: NCI-H460 lung

Which GI50 (786-0 renal) does the source give for CC(C)(O)c1cncc(-c2ccc3ncnc(N4CCc5cc(F)c(Cl)cc54)c3c2)c1 here?
The GI50 was 722 nM.

And the TGI (786-0 renal)?
Its TGI is 75400 nM.

What about the GI50 (A498 renal) of the same compound?
The GI50 was 197 nM.

What about the TGI (A498 renal) of the same compound?
The TGI was 1170 nM.

What about the GI50 (A549 NSCLC) of the same compound?
The GI50 was 773 nM.

And the TGI (A549 NSCLC)?
Its TGI is over 100000 nM.

What about the GI50 (ACHN renal) of the same compound?
Its GI50 is 572 nM.

And the TGI (ACHN renal)?
Its TGI is over 100000 nM.

And the GI50 (BT-549 breast)?
Its GI50 is 1220 nM.

And the TGI (BT-549 breast)?
The TGI was 8890 nM.

What about the GI50 (CAKI-1 renal) of the same compound?
The GI50 was 388 nM.

What about the TGI (CAKI-1 renal) of the same compound?
The TGI was over 100000 nM.

And the GI50 (CCRF-CEM leukemia)?
Its GI50 is 2320 nM.

What about the TGI (CCRF-CEM leukemia) of the same compound?
The TGI was over 100000 nM.

And the GI50 (COLO 205 colon)?
The GI50 was 3520 nM.

What about the TGI (COLO 205 colon) of the same compound?
The TGI was over 100000 nM.

And the GI50 (DU-145 prostate)?
Its GI50 is 1490 nM.

And the TGI (DU-145 prostate)?
Its TGI is over 100000 nM.

And the GI50 (EKVX NSCLC)?
Its GI50 is 520 nM.

And the TGI (EKVX NSCLC)?
Its TGI is 9120 nM.

And the GI50 (HCC-2998 colon)?
Its GI50 is 2360 nM.

What about the TGI (HCC-2998 colon) of the same compound?
Its TGI is over 100000 nM.

What about the GI50 (HCT-116 colon) of the same compound?
The GI50 was 2350 nM.

And the TGI (HCT-116 colon)?
Its TGI is over 100000 nM.

And the GI50 (HCT-15 colon)?
The GI50 was 1110 nM.

And the TGI (HCT-15 colon)?
The TGI was over 100000 nM.

What about the GI50 (HOP-62 NSCLC) of the same compound?
Its GI50 is 1190 nM.

And the TGI (HOP-62 NSCLC)?
Its TGI is over 100000 nM.

And the GI50 (HOP-92 NSCLC)?
The GI50 was 151 nM.

What about the TGI (HOP-92 NSCLC) of the same compound?
Its TGI is 827 nM.

What about the GI50 (HS 578T breast) of the same compound?
Its GI50 is 754 nM.

What about the TGI (HS 578T breast) of the same compound?
The TGI was 11700 nM.

What about the GI50 (HT29 colon) of the same compound?
Its GI50 is 908 nM.

What about the TGI (HT29 colon) of the same compound?
The TGI was over 100000 nM.

And the GI50 (IGROV1 ovarian)?
The GI50 was 235 nM.

And the TGI (IGROV1 ovarian)?
Its TGI is 1300 nM.

What about the GI50 (KM12 colon) of the same compound?
Its GI50 is 5860 nM.

What about the TGI (KM12 colon) of the same compound?
Its TGI is over 100000 nM.

And the TGI (LOX IMVI melanoma)?
The TGI was 65100 nM.

And the GI50 (M14 melanoma)?
The GI50 was 4890 nM.

And the TGI (M14 melanoma)?
Its TGI is over 100000 nM.

And the GI50 (MALME-3M melanoma)?
The GI50 was 1520 nM.

What about the TGI (MALME-3M melanoma) of the same compound?
The TGI was over 100000 nM.

And the GI50 (MCF7 breast)?
Its GI50 is 349 nM.

And the TGI (MCF7 breast)?
The TGI was over 100000 nM.

And the GI50 (MDA-MB-231 breast)?
Its GI50 is 1500 nM.

And the TGI (MDA-MB-231 breast)?
The TGI was over 100000 nM.

What about the GI50 (MDA-MB-435) of the same compound?
Its GI50 is 2630 nM.

And the TGI (MDA-MB-435)?
The TGI was over 100000 nM.

What about the GI50 (NCI-H226 lung) of the same compound?
Its GI50 is 3460 nM.

And the TGI (NCI-H226 lung)?
Its TGI is over 100000 nM.

And the GI50 (NCI-H460 lung)?
The GI50 was 1330 nM.
